Measurements published in patent US20140123342A1, “Regulation of Stomatal Apertures by Apyrases and Extracellular Nucleotides” (BOARD OF REGENTS, THE UNIVERSITY OF TEXAS SYSTEM, priority 2011, published 2014).

Columns and labels:
Format in all cases: cell-based, Arabidopsis thaliana
[1] = tested on: stomata (guard cells) in whole leaves; assay: Stomatal aperture closure studies, whole leaves in the light; settings: 10 μM, 2 h
Procedure: (§1) Stomatal Aperture Studies: Arabidopsis thaliana ecotypes Columbia (Col-0) and Wassilewskija (WS) were used as wild types in this study. Col-0, nia1nia2, atrbohD/F, R2-4A and WS plants were all grown on autoclaved Metro-Mix 200 soil at 22° C. under continuous light. The mutant seeds nia1nia2 nia2-5; CS 2356; Col-0 background) were obtained from Dr. N. M. Crawford (University of California at San Diego) and the mutant seeds atrbohD/F (Col-0 background) were obtained from Dr. J. M. Kwak (University of Maryland). The RNAi mutant apyrase line (R2-4A) is in WS background, so WS ecotype was used as the control wild type for these studies. Leaves from 2 to 3 week old Col-0 plants, or R2-4A and WS plants treated with 4 μM estradiol for 1 week after development of mature basal leaves were used for peel and whole leaf studies. Plants were placed in the dark and watered 24 h before an study. For opening studies, plants were used immediately after 24 h dark treatment and all treatments were done in the dark except for the light treated leaves or peels, thus the control stomata are dark controls. For closure studies, plants were placed in the light 3 h before an study to induce stomatal opening and all treatments were done in the light, thus the control stomata are light controls. For peel studies, epidermal peels were made from the underside of the leaf and treatments were applied to the peels for 1 h. For whole leaf studies, leaves were removed and treatments were applied for 2 h. For each treatment, about 3 or 4 peels collected from different leaves or 3 or 4 different leaves of at least two different plants were floated with the abaxial side up in petri dishes on 3 mL of Arabidopsis leaf buffer consisting of 10 mM KCl, 25 mM MES pH 6.15 (Melotto et al., 2006) and the chemical being tested. For whole leaf studies peels were collected after the treatment.
(§2) For studies testing the effects of ATPγS, ADPγS, AMPS, RB2, and PPADS (Sigma, St. Louis, Mo., USA) 20 mM stocks were made by dissolving the compounds in de-ionized water. For studies testing the effects of apyrase inhibitors, 7.5 mg/mL of NGXT191 and of inhibitor #13 (Windsor et al., 2002) was dissolved in dimethyl sulfoxide (DMSO) and then applied at a dilution of […] for a final concentration of 0.1% DMSO. ABA (Sigma, St. Louis, Mo., USA) was dissolved in ethanol in 10 mM stocks and then applied at a dilution of 1:1000. The stocks were stored at −20° C. while not in use. The production of the anti-AtAPY1 antibodies used is described by Steinebrunner et al. (2003). The crude immune and pre-immune sera were purified using protein A-Sepharose following the protocol described by Martin (1982) with the slight modification that the buffers used were azide-free. The protein-A purified sera were both used at a 1:1000 dilution in leaf stomatal aperture studies. The concentration of the immune and pre-immune sera, determined by Bradford assay (Bio-Rad), was 10.2 μg/mL and 7.7 μg/mL, respectively.
(§3) After treatment, photos of stomata were taken using a light microscope at 20×. Stomatal aperture width was measured using the image processing software ImageJ. Typically, photos were taken of 70 to 90 stomata per treatment of which only 50 stomata were measured for each treatment. For each treatment the ratio of closed stomata (width of 0) to open stomata was determined for all stomata imaged and this ratio was maintained in the 50 stomata that were measured for each treatment. Data shown uses apertures determined as width/length, however data in all studies also obtained as width only and generally width/length and width only data are in agreement with each other. Statistical significance of the measurements for the treatments was determined using the Student's t test in Microsoft Excel.

NO in guard cells = assay: Detection and quantification of NO (DAF-2 DA fluorescence); settings: 10 μM, leaf epidermal tissue, after 45 min
Procedure: Detection and Quantification of H2O2 and NO: Col-0 plants were grown on soil for 2 to 4 weeks under continuous light at 21° C. Plants were placed in the dark for 24 h to ensure closure and then transferred to the light for 1 h. After 1 h in the light, mature basal leaves were excised and blended in a Waring blender on the low setting for approximately 10 s to isolate epidermal tissues, and the tissues were placed in 3 mL of 30 mM KCl, 10 mM Mes-KOH, pH 6.16 buffer in light for 2 h (Pei et al., 2000; Murata et al., 2001). DAF-2 DA and H2DCFDA were dissolved in DMSO to produce 5 mM and 10 mM stock solutions, respectively, and these were stored at −20° C. in 30 μL, aliquots. Fifty μM H2DCFDA or 15 μM DAF-2 DA was added to the medium in the dark, and after 30 min, 10 μM ABA, 200 μM ATPγS, or buffer (ATP control) was also added to the medium in the dark for 30 min. Peels were then rinsed by decanting the treatment solution and adding 3 mL fresh leaf buffer to the peels. Peels were rinsed twice as described. A peel from each of the three treatments (ABA, ATPγS and buffer) were placed on the same microscope slide and observed sequentially. A second study was staggered 30 to 45 min after the first by loading the H2DCFDA or DAF-2 DA dye to new peels 30 to 45 min after the first round of dye was added. Confocal laser scanning microscopy (CLSM) was performed with a Leica SP2 AOBS confocal microscope (Leica Microsystems, Bannockburn, Ill., USA). Laser power was set at 15%, with an excitation of 488 nm and an emission of 525 nm. A series of 0.5 μm optical sections with average intensity projection along the z axis were collected and made into one 2D image with greater focal depth. All images were obtained with the same software scanning settings including detector gain and laser intensity settings.

[2] = tested on: stomata of atrbohD/F mutant leaves; assay: Stomatal closing studies with whole leaves of atrbohD/F mutant; settings: 10 μM
Procedure: (§4) Stomatal Aperture Studies: Arabidopsis thaliana ecotypes Columbia (Col-0) and Wassilewskija (WS) were used as wild types in this study. Col-0, nia1nia2, atrbohD/F, R2-4A and WS plants were all grown on autoclaved Metro-Mix 200 soil at 22° C. under continuous light. The mutant seeds nia1nia2 nia2-5; CS 2356; Col-0 background) were obtained from Dr. N. M. Crawford (University of California at San Diego) and the mutant seeds atrbohD/F (Col-0 background) were obtained from Dr. J. M. Kwak (University of Maryland). The RNAi mutant apyrase line (R2-4A) is in WS background, so WS ecotype was used as the control wild type for these studies. […]
as §3, with “Statistical significance of the measurements for the treatments was determined using the Student's t test in Microsoft Excel.” left out

[3] = tested on: stomata (guard cells) in epidermal peels; assay: Stomatal aperture closure studies, epidermal peels in the light; settings: 10 μM, epidermal peels, light, 1 h
Procedure: as §1, §2, §3

[4] = tested on: stomata of nia1nia2 mutant leaves; assay: Stomatal closing studies with whole leaves of nia1nia2 mutant; settings: 10 μM
Procedure: as §4
as §3, with “Statistical significance of the measurements for the treatments was determined using the Student's t test in Microsoft Excel.” left out

SMILES: CC1=CC(=O)CC(C)(C)[C@@]1(O)/C=C/C(C)=C\C(=O)O [ABA, abscisic acid]
- effect on stomatal aperture ([1]; both estradiol-treated WS wild-type and R2-4A plants): caused closure
- effect on stomatal aperture ([1]; whole leaves, light): induced stomatal closure
- increase in DAF-2 DA fluorescence in guard cells (NO in guard cells): 2.5 fold
- effect on stomatal aperture [2]: no effect on stomatal aperture
- effect on stomatal aperture [3]: induced stomatal closure
- effect on stomatal aperture [4]: no effect on stomatal aperture
